Experiments:
RANKL expression = conditions: cultured bone marrow stromal cell line; cited from earlier work
[1] = tested on: arthritis pain (mechanical hyperalgesia); assay: Rat complete Freund's adjuvant (CFA) model of arthritis pain; type: in vivo; conditions: day 14 post CFA
Experimental: The effect of RANK/RANKL antagonism on arthritis pain was examined in the rat complete Freund's adjuvant (CFA) model of arthritis pain. In this model, injection of 100% complete Freund's adjuvant (CFA) in a 75 μL volume into the left hind paws is followed by a 10-14 day period to allow for the development of arthritis pain. Animals were orally administered zoledronic acid 9 mg/kg (or 54 mg/m^2), or zoledronic acid 60 mg/kg (or 360 mg/m^2) to produce RANK/RANKL antagonism, divided in three equal daily doses on the first three days post CFA injection, or vehicle (control). Drug was dissolved in distilled water and prepared fresh daily. Animals were fasted prior to dosing.
Arthritis pain (mechanical hyperalgesia) in the vehicle and drug-treated animals was evaluated on day 14 post CFA injection using a digital Randall-Selitto device (dRS; IITC Life Sciences, Woodland Hills, Calif.). […] Paw compression threshold was measured by applying increasing pressure to the plantar surface of the hind paw with a dome-shaped tip placed between the 3rd and 4th metatarsus. […]
Reversal of arthritis pain in the ipsilateral (CFA-injected) paw was calculated according to the formula: % reversal=(ipsilateral drug threshold−ipsilateral vehicle threshold)/(contralateral vehicle threshold−ipsilateral vehicle threshold)×100. […]

[2] = tested on: pain associated with arthritis; assay: Treatment of patient suffering from pain associated with arthritis; type: in vivo, human; conditions: patient two, 60 mg subcutaneously, within 6 months after treatment
Experimental: PROLIA® (denosumab, 60 mg) is administered subcutaneously to a patient suffering from pain associated with arthritis. […] IMBRUVICA® (ibrutinib, 420 mg taken orally once daily (three 140 mg capsules once daily)) is administered to a patient suffering from pain associated with arthritis. […] IMBRUVICA® (ibrutinib, 560 mg taken orally once daily, (four 140 mg capsules once daily)) is administered to a patient suffering from pain associated with arthritis.

[3] = tested on: complex regional pain syndrome; assay: Treatment of patient suffering from complex regional pain syndrome; type: in vivo, human; conditions: patient one, 60 mg subcutaneously, within 6 months after treatment
Experimental: PROLIA® (denosumab, 60 mg) is administered subcutaneously to a patient suffering from complex regional pain syndrome. […] The injection is repeated every six months.

[4] = tested on: pain associated with osteoarthritis; assay: Treatment of patient suffering from pain associated with osteoarthritis; type: in vivo, human; conditions: patient one, 60 mg subcutaneously, within 6 months after treatment
Experimental: PROLIA® (denosumab, 60 mg) is administered subcutaneously to a patient suffering from pain associated with osteoarthritis. […] The injection is repeated every six months. IMBRUVICA® (ibrutinib, 420 mg taken orally once daily (three 140 mg capsules once daily)) is administered to a patient suffering from pain associated with osteoarthritis. […] IMBRUVICA® (ibrutinib, 560 mg taken orally once daily, (four 140 mg capsules once daily)) is administered to a patient suffering from pain associated with osteoarthritis.

neuropathic pain = assay: Treatment of patient suffering from neuropathic pain; type: in vivo, human; conditions: patient one, 60 mg subcutaneously, within 6 months after treatment
Experimental: PROLIA® (denosumab, 60 mg) is administered subcutaneously to a patient suffering from neuropathic pain. […] The injection is repeated every six months.

low back pain = assay: Treatment of patient suffering from low back pain; type: in vivo, human; conditions: patient two, 60 mg subcutaneously, within 6 months after treatment
Experimental: PROLIA® (denosumab, 60 mg) is administered subcutaneously to a patient suffering from low back pain. […] The injection is repeated every six months. IMBRUVICA® (ibrutinib, 420 mg taken orally once daily (three 140 mg capsules once daily)) is administered to a patient suffering from low back pain. […] IMBRUVICA® (ibrutinib, 560 mg taken orally once daily, (four 140 mg capsules once daily)) is administered to a patient suffering from low back pain.

O=P(O)(O)C(O)(Cc1cnc2ccccn12)P(=O)(O)O [Minodronic acid, minodronic acid]
RANKL expression (RANKL expression): inhibit[] RANKL expression

O=P(O)(O)C(O)(Cn1ccnc1)P(=O)(O)O [zoledronic acid]
reversal of arthritis pain ([1]; oral 9 mg/kg (54 mg/m^2) total in three daily doses): 33% | reversal of arthritis pain ([1]; oral 60 mg/kg (360 mg/m^2) total in three daily doses): 54%

denosumab [PROLIA]
pain experienced by patient [2]: less pain | pain experienced by patient [3]: less pain | pain experienced by patient [4]: less pain | pain experienced by patient (neuropathic pain): less pain | pain experienced by patient (low back pain): less pain
